Results on 1 compound are retold here after US10006166B2, “Integrating the production of carboxylated cellulose nanofibrils and cellulose nanocrystals using recyclable organic acids” (The United States of America as Represented by the …, priority 2016, dated 2018).

How the values of the data set were obtained: UV absorption spectrophotometric methods were employed for rapidly determining the soluble acid concentration in the solution. The UV-absorption spectra for oxalic, maleic, and toluenesulfonic acids are shown in FIGS. 3, 4, and 5, respectively.
The solubilities of oxalic, maleic, and toluenesulfonic acids at different temperatures were determined from UV absorption measurements in saturated solutions at different temperatures. The measured solubility data were fit to an exponential function as shown by Eq. (1). The maximum acid concentration that can be used at a given temperature can be determined from the exponential expression.
[formula] Where s0 and B are fitting constants and listed in TABLE 1 for the three acids studied while T is in degree Kelvin.

Turning to `O=C(O)/C=C\C(=O)O` [Maleic acid], the “Fitting constant B for predicting solubility using Eq. (1)” value is 2,461 and the “Fitting constant s0 for predicting solubility using Eq. (1)” value is reported as 3.14 × 10^5.
